In patent US12180306B2, “Anti-allergic peptide and use thereof for immune regulation and anti-allergy” (Greenyn Biotechnology Co., Ltd, priority 2022, dated 2024):

System: mouse mast cells P815
Assay: Inhibition of IL-4 and IL-13 secretion by compound 48/80-induced mouse mast cells P815
Format: cell-based
Parameters: key to IL-13 Concentration decrease percentage (%) / IL-4 Concentration decrease percentage (%): N represents that the results obtained have not decreased
Details: synthetic peptides; for IL-4 Concentration decrease percentage (%) / IL-13 Concentration decrease percentage (%): P815 cells, compound 48/80 10 μg/mL; for inhibiting allergic reactions: conclusion from Table 3; for effects in inhibiting secretion of IL-4 and IL-13 by cells: comparison within Table 3
Experimental: Referring to the method disclosed in Example 3, an ability of each of the above synthetic sequences in inhibiting secretion of cytokines such as IL-4 and IL-13 is tested, the results are shown in Table 3, where N represents that the results obtained have not decreased.

## KIVNQVNHLNPT [Peptide 12]
  IL-4 Concentration decrease percentage (%): N
  IL-13 Concentration decrease percentage (%): 10.8%

## QTAQALVLIG [Peptide 13]
  IL-4 Concentration decrease percentage (%): N
  IL-13 Concentration decrease percentage (%): 12.1%

## LVPWSIIGL [Peptide 14]
  IL-4 Concentration decrease percentage (%): N
  IL-13 Concentration decrease percentage (%): 9.8%

## TRQKALAALGI [Peptide 16]
  IL-4 Concentration decrease percentage (%): N
  IL-13 Concentration decrease percentage (%): 5.9%

## EWLLGLLGI [Peptide 4]
  inhibiting allergic reactions: capable of inhibiting allergic reactions
  IL-4 Concentration decrease percentage (%): 19.9%
  IL-13 Concentration decrease percentage (%): 35.4%

## NPALQVIKV [Peptide 2]
  effects in inhibiting secretion of IL-4 and IL-13 by cells: better effects
  inhibiting allergic reactions: capable of inhibiting allergic reactions
  IL-4 Concentration decrease percentage (%): 8.1%
  IL-13 Concentration decrease percentage (%): 27.1%

## NKKQAAALGI [Peptide 8]
  IL-4 Concentration decrease percentage (%): 1.0%
  IL-13 Concentration decrease percentage (%): 11.4%

## ADALQLVLAV [Peptide 15]
  IL-4 Concentration decrease percentage (%): 2.7%
  IL-13 Concentration decrease percentage (%): 3.8%

## PMALLAVLGL [Peptide 7]
  IL-4 Concentration decrease percentage (%): 4.1%
  IL-13 Concentration decrease percentage (%): 5.2%

## TANAIGLAGLI [Peptide 10]
  IL-4 Concentration decrease percentage (%): 9.3%
  IL-13 Concentration decrease percentage (%): N

## DLDVVVALGI [Peptide 5]
  effects in inhibiting secretion of IL-4 and IL-13 by cells: better effects
  inhibiting allergic reactions: capable of inhibiting allergic reactions
  IL-4 Concentration decrease percentage (%): 7.3%
  IL-13 Concentration decrease percentage (%): 24.0%

## GVSGGVLAAILG [Peptide 9]
  IL-4 Concentration decrease percentage (%): 5.8%
  IL-13 Concentration decrease percentage (%): 2.7%

## GLGDAKVALGI [Peptide 3]
  effects in inhibiting secretion of IL-4 and IL-13 by cells: better effects
  inhibiting allergic reactions: capable of inhibiting allergic reactions
  IL-4 Concentration decrease percentage (%): 5.1%
  IL-13 Concentration decrease percentage (%): 21.7%

## DLQLAGLIGL [Peptide 1]
  inhibiting allergic reactions: capable of inhibiting allergic reactions
  IL-4 Concentration decrease percentage (%): 14.5%
  IL-13 Concentration decrease percentage (%): 24.0%

## VGNSLAAVIIG [Peptide 6]
  IL-4 Concentration decrease percentage (%): 0.9%
  IL-13 Concentration decrease percentage (%): 2.7%

## PPYQGAPLM [Peptide 11]
  IL-4 Concentration decrease percentage (%): 10.0%
  IL-13 Concentration decrease percentage (%): N
